# From publication PMC7155420 (2020)
# Columns and labels:
# [1] = system: r(CGGx6); GGx6 (RNA, repeat) GGAGAGGGUUUAAUCGGCGGCGGCGGCGGCGGUACGAAAGUACGGCGGCGGCGGCGGCGGAUUGGAUCCGCAAGG; test: CD melting, 267 nm; conditions: K+ (50 mM KCl, 10 mM potassium phosphate); 10 µM RNA; drug/nucleic acid ratio up to 2.0; 1 °C/min; per base
# [2] = system: r(CGGx6); GGx6 (RNA, repeat) GGAGAGGGUUUAAUCGGCGGCGGCGGCGGCGGUACGAAAGUACGGCGGCGGCGGCGGCGGAUUGGAUCCGCAAGG; test: ITC, two-mode fit; conditions: K+ (10 mM potassium phosphate); 298 K; highest-affinity site
# [3] = system: r(CGGx1); GGx1; (5'CGG/3'GCC) x 1 in Table S1 (RNA, mismatch bulge abasic) GGAGAGGGUUUAAUCGGUACGAAAGUACGGAUUGGAUCCGCAAGG; test: CD melting, 267 nm; conditions: K+ (50 mM KCl, 10 mM potassium phosphate); 10 µM RNA; drug/nucleic acid ratio up to 2.0; 1 °C/min; per base
# [4] = system: r(CGGx6); GGx6 (RNA, repeat) GGAGAGGGUUUAAUCGGCGGCGGCGGCGGCGGUACGAAAGUACGGCGGCGGCGGCGGCGGAUUGGAUCCGCAAGG; test: fluorescence titration (curcumin fluorescence), two-mode fit; conditions: 50 mM KCl (general buffer); 10 mM phosphate, pH 7.0, 25 °C; stronger of two sites
# [5] = system: r(CGGx1); GGx1; (5'CGG/3'GCC) x 1 in Table S1 (RNA, mismatch bulge abasic) GGAGAGGGUUUAAUCGGUACGAAAGUACGGAUUGGAUCCGCAAGG; test: as above; conditions: 50 mM KCl (general buffer); 10 mM phosphate, pH 7.0, 25 °C; stronger of two sites
compound,measurement,setting,value
COc1cc(/C=C/C(=O)CC(=O)/C=C/c2ccc(O)c(OC)c2)ccc1O,ΔTm,[1],3.48 °C
same,Ka,[2],1.7 × 10^6 M^–1
same,ΔTm,[3],1.49 °C
same,Kd1,[4],0.092 ± 0.004 µM
same,Kd1,[5],0.12 ± 0.02 µM
